Measured values from PMC7531004, “Discovery of gramicidin A analogues with altered activities by multidimensional screening of a one-bead-one-compound library” (Nature Communications, 2020).
Where a SMILES comes first, the peptide text is derived from it. [ ]: non-standard residue; d: D form. The star is where a group is joined. NHCH2CH2OH = OCCN*; For = O=C*

Columns and labels:
[1] = H+/Na+ transport assay of bead-derived peptides (one-point); assay type: biochemical; design: key: relative activity; mean of two control wells = 1.00; settings: bead-derived peptide solution, EYPC/EYPG LUVs;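 also: relative to parent gramicidin A activity set to 1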
Method in brief: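 Miniaturized 96-well format. LUVs with entrapped pyranine (1.0 mM) were exposed to peptide for 30 min at RT. Intensities were expressed relative to full lysis by Triton X-100 and no treatment, with control-well mean = 1.00.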

[2] = cell viability/%
Method in brief: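 First, library peptide stocks are diluted 250-fold in RPMI1640 with 10% heat-inactivated FBS. Next, they are mixed with P388 cells to give 1 × 10^4 cells/mL and incubated 92 h at 37 °C, 5% CO2. Finally, viability (%) is scored by WST-1 absorbance at 415 nm.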

[3] = test system: Streptococcus pyogenes SSI-9; assay: Antibacterial activity assay of bead-derived peptides (three concentrations); assay type: cell-based; design: key: +++: inhibition by the 640-fold diluted peptide solution; ++: inhibition by the 160-fold diluted solution; +: inhibition by the 40-fold diluted solution; -: no inhibition; settings: S. pyogenes, bead-derived peptide solution, three concentrations
Method in brief: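 Three stock dilutions per peptide (none, 4-fold, 16-fold in DMSO) are screened in 96-well format. The medium is blood-supplemented cation-adjusted MHB, inoculated with 2 × 10^5 CFU S. pyogenes SSI-9. Growth is read as cell precipitation at 18 h, 37 °C.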

Row | Structure (SMILES) | H+/Na+ transport activity normalized against the value of 1 (1.00) [1] | viability [2] [%] | antibacterial activity [3]
1 | CC(C)C[C@@H](NC(=O)[C@H](Cc1c[nH]c2ccccc12)NC(=O)[C@@H](CC(C)C)NC(=O)[C@H](Cc1c[nH]c2ccccc12)NC(=O)[C@@H](CC(C)C)NC(=O)[C@H](Cc1c[nH]c2ccccc12)NC(=O)[C@H](NC(=O)[C@@H](NC(=O)[C@H](NC(=O)[C@H](C)NC(=O)[C@H](NC(=O)[C@H](C)NC(=O)CNC(=O)[C@@H](NC=O)C(C)C)C(C)C)C(C)C)C(C)C)[C@H](C)O)C(=O)N[C@@H](Cc1c[nH]c2ccccc12)C(=O)NCCO [compound 10353] (For-VGA[dV]A[dV]V[dT]W[dL]W[dL]W[dL]W-NHCH2CH2OH) | 1.02 | 100 | -
2 | CNC(=O)C[C@@H](NC(=O)[C@@H](NC(=O)[C@@H](CC(C)C)NC(=O)[C@H](C)NC(=O)[C@@H](CC(C)C)NC(=O)[C@H](C)NC(=O)CNC(=O)[C@@H](NC=O)C(C)C)C(C)C)C(=O)N[C@@H](Cc1c[nH]c2ccccc12)C(=O)N[C@H](CC(C)C)C(=O)N[C@@H](Cc1c[nH]c2ccccc12)C(=O)N[C@@H](C(=O)N[C@@H](Cc1c[nH]c2ccccc12)C(=O)N[C@@H](C(=O)N[C@@H](Cc1c[nH]c2ccccc12)C(=O)NCCO)C(C)C)C(C)C [compound 10379] (For-VGA[dL]A[dL]V[dD](NHMe)W[dL]W[dV]W[dV]W-NHCH2CH2OH) | 1.08 | 100 | -
3 | CC(C)C[C@@H](NC(=O)[C@H](C)NC(=O)CNC(=O)[C@@H](NC=O)C(C)C)C(=O)N[C@@H](C)C(=O)N[C@@H](C(=O)N[C@H](C(=O)N[C@@H](C(=O)N[C@@H](Cc1c[nH]c2ccccc12)C(=O)N[C@H](CC(C)C)C(=O)N[C@@H](Cc1c[nH]c2ccccc12)C(=O)N[C@@H](C(=O)N[C@@H](Cc1c[nH]c2ccccc12)C(=O)N[C@@H](C(=O)N[C@@H](Cc1c[nH]c2ccccc12)C(=O)NCCO)C(C)C)C(C)C)[C@H](C)O)C(C)C)C(C)C [compound 10400] (For-VGA[dL]A[dV]V[dT]W[dL]W[dV]W[dV]W-NHCH2CH2OH) | 1.04 | 100 | -
4 | CC(C)C[C@@H](NC(=O)[C@H](Cc1c[nH]c2ccccc12)NC(=O)[C@H](NC(=O)[C@H](Cc1c[nH]c2ccccc12)NC(=O)[C@H](NC(=O)[C@@H](NC(=O)[C@H](NC(=O)[C@H](C)NC(=O)[C@H](NC(=O)[C@H](C)NC(=O)CNC(=O)[C@@H](NC=O)C(C)C)C(C)C)C(C)C)C(C)C)[C@H](C)O)C(C)C)C(=O)N[C@@H](Cc1c[nH]c2ccccc12)C(=O)N[C@@H](C(=O)N[C@@H](Cc1c[nH]c2ccccc12)C(=O)NCCO)C(C)C [compound 10506] (For-VGA[dV]A[dV]V[dT]W[dV]W[dL]W[dV]W-NHCH2CH2OH) | 1.18 | 91.3 | -
5 | CC(C)C[C@@H](NC(=O)[C@H](C)NC(=O)CNC(=O)[C@@H](NC=O)C(C)C)C(=O)N[C@@H](C)C(=O)N[C@H](CC(C)C)C(=O)N[C@H](C(=O)N[C@@H](C(=O)N[C@@H](Cc1c[nH]c2ccccc12)C(=O)N[C@@H](C(=O)N[C@@H](Cc1c[nH]c2ccccc12)C(=O)N[C@@H](C(=O)N[C@@H](Cc1c[nH]c2ccccc12)C(=O)N[C@@H](C(=O)N[C@@H](Cc1c[nH]c2ccccc12)C(=O)NCCO)C(C)C)C(C)C)C(C)C)[C@H](C)O)C(C)C [compound 10609] (For-VGA[dL]A[dL]V[dT]W[dV]W[dV]W[dV]W-NHCH2CH2OH) | 1.15 | 79.4 | -
6 | CNC(=O)C[C@@H](NC(=O)[C@H](C)NC(=O)CNC(=O)[C@@H](NC=O)C(C)C)C(=O)N[C@@H](C)C(=O)N[C@@H](C(=O)N[C@H](C(=O)N[C@@H](C(=O)N[C@@H](Cc1c[nH]c2ccccc12)C(=O)N[C@H](CC(C)C)C(=O)N[C@@H](Cc1c[nH]c2ccccc12)C(=O)N[C@H](CC(C)C)C(=O)N[C@@H](Cc1c[nH]c2ccccc12)C(=O)N[C@H](CC(C)C)C(=O)N[C@@H](Cc1c[nH]c2ccccc12)C(=O)NCCO)C(C)C)C(C)C)C(C)C [compound 10673] (For-VGA[dD](NHMe)A[dV]V[dV]W[dL]W[dL]W[dL]W-NHCH2CH2OH) | 1.01 | 97.7 | -
7 | CC(C)C[C@@H](NC(=O)[C@H](C)NC(=O)CNC(=O)[C@@H](NC=O)C(C)C)C(=O)N[C@@H](C)C(=O)N[C@@H](C(=O)N[C@H](C(=O)N[C@@H](C(=O)N[C@@H](Cc1c[nH]c2ccccc12)C(=O)N[C@@H](C(=O)N[C@@H](Cc1c[nH]c2ccccc12)C(=O)N[C@H](CC(C)C)C(=O)N[C@@H](Cc1c[nH]c2ccccc12)C(=O)N[C@H](CC(C)C)C(=O)N[C@@H](Cc1c[nH]c2ccccc12)C(=O)NCCO)[C@H](C)O)C(C)C)C(C)C)C(C)C [compound 10674] (For-VGA[dL]A[dV]V[dV]W[dT]W[dL]W[dL]W-NHCH2CH2OH) | 1.08 | 87.3 | +
8 | CC(C)C[C@@H](NC(=O)[C@H](Cc1c[nH]c2ccccc12)NC(=O)[C@H](NC(=O)[C@H](Cc1c[nH]c2ccccc12)NC(=O)[C@@H](CC(C)C)NC(=O)[C@H](Cc1c[nH]c2ccccc12)NC(=O)[C@@H](CC(C)C)NC(=O)[C@@H](NC(=O)[C@H](NC(=O)[C@H](C)NC(=O)[C@H](NC(=O)[C@H](C)NC(=O)CNC(=O)[C@@H](NC=O)C(C)C)C(C)C)[C@H](C)O)C(C)C)C(C)C)C(=O)N[C@@H](Cc1c[nH]c2ccccc12)C(=O)NCCO [compound 10686] (For-VGA[dV]A[dT]V[dL]W[dL]W[dV]W[dL]W-NHCH2CH2OH) | 1.05 | 100 | -
9 | CC(C)C[C@@H](NC(=O)[C@H](C)NC(=O)[C@H](NC(=O)[C@H](C)NC(=O)CNC(=O)[C@@H](NC=O)C(C)C)C(C)C)C(=O)N[C@H](C(=O)N[C@H](CC(C)C)C(=O)N[C@@H](Cc1c[nH]c2ccccc12)C(=O)N[C@@H](C(=O)N[C@@H](Cc1c[nH]c2ccccc12)C(=O)N[C@@H](C(=O)N[C@@H](Cc1c[nH]c2ccccc12)C(=O)N[C@H](CC(C)C)C(=O)N[C@@H](Cc1c[nH]c2ccccc12)C(=O)NCCO)C(C)C)C(C)C)C(C)C [compound 11126] (For-VGA[dV]A[dL]V[dL]W[dV]W[dV]W[dL]W-NHCH2CH2OH) | 1.07 | 8.7 | -
10 | CNC(=O)C[C@@H](NC(=O)[C@H](C)NC(=O)CNC(=O)[C@@H](NC=O)C(C)C)C(=O)N[C@@H](C)C(=O)N[C@@H](C(=O)N[C@H](C(=O)N[C@@H](C(=O)N[C@@H](Cc1c[nH]c2ccccc12)C(=O)N[C@H](CC(C)C)C(=O)N[C@@H](Cc1c[nH]c2ccccc12)C(=O)N[C@H](CC(C)C)C(=O)N[C@@H](Cc1c[nH]c2ccccc12)C(=O)N[C@@H](C(=O)N[C@@H](Cc1c[nH]c2ccccc12)C(=O)NCCO)C(C)C)C(C)C)C(C)C)C(C)C [compound 11200] (For-VGA[dD](NHMe)A[dV]V[dV]W[dL]W[dL]W[dV]W-NHCH2CH2OH) | 1.06 | 66 | -
11 | CC(C)C[C@@H](NC(=O)[C@H](C)NC(=O)[C@H](NC(=O)[C@H](C)NC(=O)CNC(=O)[C@@H](NC=O)C(C)C)C(C)C)C(=O)N[C@H](C(=O)N[C@@H](C(=O)N[C@@H](Cc1c[nH]c2ccccc12)C(=O)N[C@@H](C(=O)N[C@@H](Cc1c[nH]c2ccccc12)C(=O)N[C@H](CC(C)C)C(=O)N[C@@H](Cc1c[nH]c2ccccc12)C(=O)N[C@@H](C(=O)N[C@@H](Cc1c[nH]c2ccccc12)C(=O)NCCO)C(C)C)C(C)C)C(C)C)C(C)C [compound 11268] (For-VGA[dV]A[dL]V[dV]W[dV]W[dL]W[dV]W-NHCH2CH2OH) | 1.06 | 100 | +
12 | CNC(=O)C[C@@H](NC(=O)[C@H](C)NC(=O)[C@@H](CC(C)C)NC(=O)[C@H](C)NC(=O)CNC(=O)[C@@H](NC=O)C(C)C)C(=O)N[C@H](C(=O)N[C@@H](C(=O)N[C@@H](Cc1c[nH]c2ccccc12)C(=O)N[C@H](CC(C)C)C(=O)N[C@@H](Cc1c[nH]c2ccccc12)C(=O)N[C@@H](C(=O)N[C@@H](Cc1c[nH]c2ccccc12)C(=O)N[C@@H](C(=O)N[C@@H](Cc1c[nH]c2ccccc12)C(=O)NCCO)C(C)C)C(C)C)C(C)C)C(C)C [compound 11290] (For-VGA[dL]A[dD](NHMe)V[dV]W[dL]W[dV]W[dV]W-NHCH2CH2OH) | 1.47 | 87.6 | -
13 | CC(C)C[C@@H](NC(=O)[C@H](C)NC(=O)CNC(=O)[C@@H](NC=O)C(C)C)C(=O)N[C@@H](C)C(=O)N[C@H](CC(C)C)C(=O)N[C@H](C(=O)N[C@@H](C(=O)N[C@@H](Cc1c[nH]c2ccccc12)C(=O)N[C@H](CC(C)C)C(=O)N[C@@H](Cc1c[nH]c2ccccc12)C(=O)N[C@@H](C(=O)N[C@@H](Cc1c[nH]c2ccccc12)C(=O)N[C@H](CC(C)C)C(=O)N[C@@H](Cc1c[nH]c2ccccc12)C(=O)NCCO)C(C)C)C(C)C)C(C)C [compound 11305] (For-VGA[dL]A[dL]V[dV]W[dL]W[dV]W[dL]W-NHCH2CH2OH) | 1.26 | 15.5 | +
